Reference: US20210246157A1, “CAMPTOTHECIN DERIVATIVES AND PREPARATION METHODS AND APPLICATIONS THEREOF” (priority 2018, published 2021)
≈ marks a conversion by molar mass, not a printed value. Where two headings read alike, the source gives them in different places.

Experiments:
[1] = tested on: HT-29; assay: Cytotoxicity test (MTT, 72 h); settings: Homo sapiens, HT-29, 72 h, read-out: 50% Inhibiting Concentration value (IC50)
Method: (§1) Cells at logarithmic growth period are inoculated in a 96-well plate overnight, then drugs with a certain gradient concentrations are added, and incubation is carried out in a cell culture chamber (5% CO2, 37° C.) for 72 h.

[2] = tested on: ECA-109; assay: Cytotoxicity test (MTT, 72 h); settings: Homo sapiens, ECa-109, 72 h, read-out: 50% Inhibiting Concentration value (IC50)
Method: (§2) In order to investigate the antitumor activities of the compounds, a variety of tumor cell lines for test are selected. Cells at logarithmic growth period are inoculated in a 96-well plate overnight, then drugs with a certain gradient concentrations are added, and incubation is carried out in a cell culture chamber (5% CO2, 37° C.) for 72 h.

[3] = tested on: PC3; assay: Cytotoxicity test (MTT, 72 h); settings: Homo sapiens, PC-3, 72 h, read-out: 50% Inhibiting Concentration value (IC50)
Method: as §2

[4] = Solubility test, equilibrium method, UV-visible spectrophotometry; assay type: physicochemical; settings: thermodynamic from solid
Method: The solubility test is carried out by equilibrium method. […] An appropriate amount of the compound is weighed and dissolved in 1 mL of methanol solution to prepare a control solution with a certain concentration (C0). The concentration of test solution is calculated according to the following formula: Cx=(Ax/A0)C0, wherein Cx is concentration of test solution, Ax is absorbance of test solution, C0 is concentration of control solution, and A0 is absorbance of control solution.

[5] = tested on: H1975; assay: Cytotoxicity test (MTT, 72 h); settings: Homo sapiens, NCI-H1975, 72 h, read-out: 50% Inhibiting Concentration value (IC50)
Method: as §2

[6] = tested on: HepG2; assay: Cytotoxicity test (MTT, 72 h); settings: Homo sapiens, HepG2, 72 h, read-out: 50% Inhibiting Concentration value (IC50)
Method: as §2

[7] = tested on: TPC-1; assay: Cytotoxicity test (MTT, 72 h); settings: Homo sapiens, TPC1, 72 h, read-out: 50% Inhibiting Concentration value (IC50)
Method: as §1

[8] = tested on: MDA-MB-231; assay: Cytotoxicity test (MTT, 72 h); settings: Homo sapiens, MDA-MB-231, 72 h, read-out: 50% Inhibiting Concentration value (IC50)
Method: as §2

[9] = tested on: BGC-823; assay: Cytotoxicity test (MTT, 72 h); settings: Homo sapiens, BGC-823, 72 h, read-out: 50% Inhibiting Concentration value (IC50)
Method: as §2

[10] = tested on: A549; assay: Cytotoxicity test (MTT, 72 h); settings: Homo sapiens, A549, 72 h, read-out: 50% Inhibiting Concentration value (IC50)
Method: as §2

[11] = tested on: SW-480; assay: Cytotoxicity test (MTT, 72 h); settings: Homo sapiens, SW480, 72 h, read-out: 50% Inhibiting Concentration value (IC50)
Method: as §1

[12] = tested on: SKOV-3; assay: Cytotoxicity test (MTT, 72 h); settings: Homo sapiens, SK-OV-3, 72 h, read-out: 50% Inhibiting Concentration value (IC50)
Method: as §1

[13] = tested on: 143B; assay: Cytotoxicity test (MTT, 72 h); settings: Homo sapiens, read-out: 50% Inhibiting Concentration value (IC50)
Method: as §2

[14] = tested on: PANC-1; assay: Cytotoxicity test (MTT, 72 h); settings: Homo sapiens, PANC-1, 72 h, read-out: 50% Inhibiting Concentration value (IC50)
Method: as §1

[15] = tested on: K562; assay: Cytotoxicity test (MTT, 72 h); settings: Homo sapiens, K562, 72 h, read-out: 50% Inhibiting Concentration value (IC50)
Method: as §2

[16] = tested on: Hela; assay: Cytotoxicity test (MTT, 72 h); settings: Homo sapiens, read-out: 50% Inhibiting Concentration value (IC50)
Method: as §2

[17] = tested on: HCT-116; assay: Cytotoxicity test (MTT, 72 h); settings: Homo sapiens, HCT-116, 72 h, read-out: 50% Inhibiting Concentration value (IC50)
Method: as §2

[18] = aqueous buffer, PBS pH 7.4, read-out: Solubility in PBS (pH = 7.4)
[19] = aqueous with cosolvent or surfactant or cyclodextrin, 0.1% aqueous solution of Tween-80, read-out: Solubility in 0.1% Tween-80
[20] = saline or isotonic, normal saline, read-out: Solubility in Normal Saline (NS)
[21] = water, read-out: Solubility in Water
[22] = aqueous with cosolvent or surfactant or cyclodextrin

| SMILES | IC50 [1] | IC50 [2] | IC50 [3] | solubility [4, 18] | solubility [4, 19] | solubility [4, 20] | solubility [4, 21] | IC50 [5] | IC50 [6] | IC50 [7] | IC50 [8] | IC50 [9] | IC50 [10] | IC50 [11] | IC50 [12] | IC50 [13] | IC50 [14] | IC50 [15] | IC50 [16] | IC50 [17] | also measured |
| --- | --- | --- | --- | --- | --- | --- | --- | --- | --- | --- | --- | --- | --- | --- | --- | --- | --- | --- | --- | --- | --- |
| CCc1c2c(nc3ccc(OC(=O)NCCCOCc4cn([C@H]5O[C@@H](CO)[C@H](O)[C@@H](O)[C@@H]5O)nn4)cc13)-c1cc3c(c(=O)n1C2)COC(=O)[C@]3(O)CC [Compound 80] | 6.94 µM | 5.78 µM | 5.11 µM | 792 µg/mL (≈ 1080 µM) | 961 µg/mL (≈ 1300 µM) | 642 µg/mL (≈ 871 µM) | 82.5 µg/mL (≈ 112 µM) | 10.7 µM | 9.33 µM | 12.8 µM | 7.78 µM | 1.19 µM | 6.13 µM | 1.43 µM | 11.2 µM | 8.9 µM | 7.36 µM | 4.29 µM | 7.36 µM | 5.15 µM |  |
| CCc1c2c(nc3ccc(OC(=O)OCCOCc4cn(CCO[C@H]5O[C@@H](CO)[C@H](O)[C@@H](O)[C@@H]5O)nn4)cc13)-c1cc3c(c(=O)n1C2)COC(=O)[C@]3(O)CC [Compound 56] | 9.39 µM | 7.83 µM | 3.91 µM |  |  |  |  | 8.25 µM | 10.2 µM | 9.9 µM | 8.53 µM | 0.093 µM | 4.7 µM | 0.112 µM | 12.3 µM | 6.88 µM | 5.63 µM | 0.114 µM | 5.63 µM | 0.137 µM | solubility [4, 22]: 2180 µg/mL (≈ 2830 µM); solubility ([4]; pH 7.4, aqueous buffer): 85.2 µg/mL (≈ 111 µM); solubility ([4]; saline or isotonic): 1110 µg/mL (≈ 1440 µM); solubility ([4]; water): 636 µg/mL (≈ 828 µM) |
| CCc1c2c(nc3ccc(OC(=O)NCCOCCOCc4cn([C@H]5O[C@@H](CO)[C@H](O)[C@@H](O)[C@@H]5O)nn4)cc13)-c1cc3c(c(=O)n1C2)COC(=O)[C@]3(O)CC [Compound 73] | 3.16 µM | 2.63 µM | 4.85 µM | 414 µg/mL (≈ 540 µM) | 1260 µg/mL (≈ 1650 µM) | 1440 µg/mL (≈ 1880 µM) | 3580 µg/mL (≈ 4670 µM) | 7.14 µM | 2.42 µM | 8.57 µM | 2.02 µM | 0.718 µM | 5.82 µM | 0.862 µM | 2.91 µM | 5.95 µM | 6.99 µM | 0.733 µM | 6.99 µM | 0.879 µM |  |
| CCc1c2c(nc3ccc(OC(=O)OCCOCCOCc4cn([C@H]5O[C@@H](CO)[C@H](O)[C@@H](O)[C@@H]5O)nn4)cc13)-c1cc3c(c(=O)n1C2)COC(=O)[C@]3(O)CC [Compound 47] | 0.694 µM | 0.578 µM | 2.46 µM |  |  |  |  | 10.8 µM | 2.74 µM | 12.9 µM | 2.28 µM | 0.228 µM | 2.95 µM | 0.274 µM | 3.29 µM | 8.96 µM | 3.54 µM | 0.228 µM | 3.54 µM | 0.273 µM | solubility [4, 22]: 650 µg/mL (≈ 846 µM); solubility ([4]; pH 7.4, aqueous buffer): 60.8 µg/mL (≈ 79.2 µM); solubility ([4]; saline or isotonic): 511 µg/mL (≈ 665 µM); solubility ([4]; water): 109 µg/mL (≈ 142 µM) |
| CCc1c2c(nc3ccc(OC(=O)OCCOCCOCCOCCOCc4cn([C@H]5O[C@@H](CO)[C@H](O)[C@@H](O)[C@@H]5O)nn4)cc13)-c1cc3c(c(=O)n1C2)COC(=O)[C@]3(O)CC [Compound 42] | 13.5 µM | 11.3 µM | 4.77 µM |  |  |  |  | 12.8 µM | 0.174 µM | 15.3 µM | 0.145 µM | 0.139 µM | 5.73 µM | 0.167 µM | 0.209 µM | 10.6 µM | 6.87 µM | 2.5 µM | 6.87 µM | 3.01 µM | solubility [4, 22]: 120 µg/mL (≈ 140 µM); solubility ([4]; pH 7.4, aqueous buffer): 85.2 µg/mL (≈ 99.6 µM); solubility ([4]; saline or isotonic): 5870 µg/mL (≈ 6860 µM); solubility ([4]; water): 162 µg/mL (≈ 189 µM) |
| CCc1c2c(nc3ccc(OC(=O)OCCOCCOCCOCCOCc4cn(CCO[C@H]5O[C@@H](CO)[C@H](O)[C@@H](O)[C@@H]5O)nn4)cc13)-c1cc3c(c(=O)n1C2)COC(=O)[C@]3(O)CC [Compound 59] | 1.13 µM | 0.939 µM | 6.69 µM |  |  |  |  | 10.5 µM | 2.73 µM | 12.6 µM | 2.28 µM | 1.01 µM | 8.03 µM | 1.21 µM | 3.28 µM | 8.77 µM | 9.64 µM | 1.39 µM | 9.64 µM | 1.67 µM | solubility [4, 22]: 1200 µg/mL (≈ 1340 µM); solubility ([4]; pH 7.4, aqueous buffer): 984 µg/mL (≈ 1090 µM); solubility ([4]; saline or isotonic): 854 µg/mL (≈ 949 µM); solubility ([4]; water): 1480 µg/mL (≈ 1650 µM) |
| CCc1c2c(nc3ccc(OC(=O)NCCCCCOCc4cn(CCO[C@H]5O[C@@H](CO)[C@H](O)[C@@H](O)[C@@H]5O)nn4)cc13)-c1cc3c(c(=O)n1C2)COC(=O)[C@]3(O)CC [Compound 88] | 9.1 µM | 7.58 µM | 7.61 µM | 895 µg/mL (≈ 1110 µM) | 1350 µg/mL (≈ 1670 µM) | 870 µg/mL (≈ 1080 µM) | 1130 µg/mL (≈ 1390 µM) | 6.98 µM | 6.22 µM | 8.38 µM | 5.18 µM | 0.721 µM | 9.13 µM | 0.865 µM | 7.46 µM | 5.82 µM | 11 µM | 2.27 µM | 11 µM | 2.73 µM |  |
| CCc1c2c(nc3ccc(OC(=O)NCCCOCc4cn(CCO[C@H]5O[C@@H](CO)[C@H](O)[C@@H](O)[C@@H]5O)nn4)cc13)-c1cc3c(c(=O)n1C2)COC(=O)[C@]3(O)CC [Compound 81] | 9.42 µM | 7.85 µM | 6.93 µM | 895 µg/mL (≈ 1150 µM) | 1210 µg/mL (≈ 1550 µM) | 985 µg/mL (≈ 1260 µM) | 985 µg/mL (≈ 1260 µM) | 9.68 µM | 6.25 µM | 11.6 µM | 5.21 µM | 0.709 µM | 8.32 µM | 0.851 µM | 7.5 µM | 8.06 µM | 9.98 µM | 6.03 µM | 9.98 µM | 7.24 µM |  |
| CCc1c2c(nc3ccc(OC(=O)NCCOCCOCc4cn(CCO[C@H]5O[C@@H](CO)[C@H](O)[C@@H](O)[C@@H]5O)nn4)cc13)-c1cc3c(c(=O)n1C2)COC(=O)C3(O)CC (some centres unmarked) [Compound 74] | 7.96 µM | 6.63 µM | 7.85 µM | 565 µg/mL (≈ 696 µM) | 2750 µg/mL (≈ 3390 µM) | 3950 µg/mL (≈ 4880 µM) | 792 µg/mL (≈ 977 µM) | 6.82 µM | 6.35 µM | 8.19 µM | 5.29 µM | 1.72 µM | 9.42 µM | 2.06 µM | 7.62 µM | 5.69 µM | 11.3 µM | 2.1 µM | 11.3 µM | 2.52 µM |  |
| CCc1c2c(nc3ccc(OC(=O)OCCOCCOCc4cn(CCO[C@H]5O[C@@H](CO)[C@H](O)[C@@H](O)[C@@H]5O)nn4)cc13)-c1cc3c(c(=O)n1C2)COC(=O)[C@]3(O)CC [Compound 57] | 1.68 µM | 1.4 µM | 17.4 µM |  |  |  |  | 12.1 µM | 5.15 µM | 14.6 µM | 4.29 µM | 0.137 µM | 20.9 µM | 0.164 µM | 6.17 µM | 10.1 µM | 22.1 µM | 1.16 µM | 15.1 µM | 1.39 µM | solubility [4, 22]: 6460 µg/mL (≈ 7950 µM); solubility ([4]; pH 7.4, aqueous buffer): 361 µg/mL (≈ 444 µM); solubility ([4]; saline or isotonic): 4290 µg/mL (≈ 5290 µM); solubility ([4]; water): 178 µg/mL (≈ 219 µM) |
